Experimental data as given in PMC7618036, “An oral heme oxygenase inhibitor targets immunosuppressive perivascular macrophages in preclinical models of cancer” (Science translational medicine, 2025).

Key:
MMTV-PyMT tumors = assay: Gemcitabine tumor growth in Lyve1^Cre and Lyve1^WT MMTV-PyMT Hmox1^fl/fl mice; type: in vivo, mouse; settings: gemcitabine 6.6mg/kg/7days
From the text: Figure 1 LYVE-1^+ PvTAMs modulate the immune landscape and resistance to chemotherapy in cancer through their expression of HO-1. (A) Representative image of a frozen section of MMTV-PyMT tumor stained with DAPI (nuclei; blue) and antibodies against F4/80 (magenta), HO-1 (red), CD31 (green). Colocalizing pixels for F4/80 and HO-1 are shown in yellow. Scale bar is 50 µm. (B-E) Schematic depicting the transgene of the HO-1 reporter mice (HO-1^Luc/eGFP) (top panel) and representative dot plot of FACs-gated live (7AAD^-) cells from enzyme-dispersed MMTV-PyMT HO-1^Luc/eGFP tumors separated based on their respective expression of HO-1 (eGFP) and CD45 (bottom panel) (B). HO-1/eGFP normalized median fluorescent intensity (MFI) of the indicated tumoral cell populations with background MFI subtracted from WT mice (n=5) (C). Representative contour plot of FACs-gated live (7AAD^-), CD45^+F4/80^+ TAMs separated based on their expression of CD206 and MHCII (left) and histograms showing the HO-1/eGFP expression of the subsets alongside the background fluorescence in WT mice (right) (D). Representative histograms of the TAM populations identified in (D) for their surface expression of LYVE-1 alongside their respective fluorescence minus one (FMO) staining (E). (F) Quantitation of the respective TAM populations identified in (D) across MMTV-PyMT tumors (n=10). […]

[1] = In vivo PK study in male ICR mice; settings: mouse, 25 umol/kg
From the text: (A) Chemical structure of KCL-HO-1i. […] (G-I) Schematic depicting the transgene of the HO-1 reporter mice (HO-1^Luc/eGFP) (upper panel) and the experimental outline (below) (G). […] Whole mouse total photon flux at each timepoint and condition was quantitated (H). Heat map displaying luciferase expression across the indicated dissected tissues (left panel) and their percentage change relative to vehicle treated animals (right panel) (I) (cohorts of n=6 mice). Images in panel (D) and (G) were created using BioRender. Bar charts show the mean, error bars SD, and the dots show individual data points from individual mice. Line charts display the mean and SEM. * P<0.05, ** P<0.01, **** P<0.0001.
Pharmacokinetics studies were performed by Pharmacology Discovery Services (PDS) Taiwan, Ltd. as a contract research organization. A single dose of 25 µMol/Kg was administered to male ICR mice via the indicated route and blood aliquots (∼300 μL) were obtained via cardiac puncture from euthanised mice using tubes coated with lithium heparin at the indicated times. Blood samples were then gently mixed and centrifuged at 2,500 x g for 15 min at 4 °C within an hour of collection. Subsequently, the plasma samples were harvested and stored frozen at -70°C until further processing. The plasma samples underwent methanol (MeOH) precipitation and were analysed using LC-MS/MS. An Agilent Poroshell 120 EC-C18 column with dimensions of 2.7 μm (3.0 x 50 mm) was utilized for chromatographic separation. The mobile phase consisted of 0.2 % formic acid (FA) in water (solvent A) and 0.2 % FA in acetonitrile (ACN; solvent B), with a gradient from 10 % to 80 % (solvent B) over a 2.5-min period at a flow rate of 0.5 mL/min with a sample injection volume of 5 µL. The bioanalytical method involved utilizing mouse plasma as the sample matrix and 20 μL of sample into a well of a 96-well plate. Subsequently, 300 μL of 0.01 ng/μL oxybutynin internal standard (IS) in MeOH was added to each well, excluding double blank (00) and carryover. For the double blank well and carryover, 300 μL of MeOH was added. After vortexing for 1 min and centrifuging at 1000 x g for 5 min, 200 μL of supernatant was taken and mixed with 300 μL of MeOH/water (50/50) for LC-MS/MS analysis. Finally, the exposure levels (ng/mL) of KCL-HO1i in plasma samples were determined using LC-MS/MS.

Compound | tumor growth (MMTV-PyMT tumors; Lyve1^Cre mice) | tumor growth (MMTV-PyMT tumors; Lyve1^WT mice) | maximum serum concentration (Cmax) ([1]; ip) [µg/mL] | serum half-life (T1/2) ([1]; ip) [h] | time to maximum serum concentration (Tmax) ([1]; ip) [h] | oral bioavailability ([1]; po)
Nc1ccn([C@@H]2O[C@H](CO)[C@@H](O)C2(F)F)c(=O)n1 [gemcitabine] | long-term durable control of tumor growth | insensitive |  |  |  | 
Sn (IV) mesoporphyrin IX dichloride [SnMP] |  |  | 68 ± 19 | 4 | 1 | not orally bioavailable
